Assay results: patent US9687529B2, “Method of controlling coagulation” (Duke University, priority 2011, dated 2017)
Strand notation (5' to 3'): a small letter for the sugar, then the base; units joined by * are phosphorothioate-linked, units joined directly phosphodiester-linked; [ ] holds rarer units or linkages, { } end groups; capitals alone tell only the bases. r = 2'-OH (RNA); f = 2'-fluoro

Experiments:
[1] = system: thrombin generation in normal human platelet poor plasma; assay: Calibrated automated thrombography (CAT); type: biochemical
Method: Normal human platelet poor plasma (80 μL) was mixed with aptamer(s) (10 μL) in an Immunolon 2HB U Bottom Mictrotiter 96-well plate (Thermo Labsystems, Franklin, Mass.) and incubated at 37° C. for 5 min. PPP reagent (Diagnostica Stago, Parsippany, N.J.) (either 1 ρM or 5 ρM TF, 20 μL, Diagnostica Stago) was added, and the mixture was incubated at 37° C. for another 5 min. FluCa (Diagnostica Stago) (10 μL) was added to initiate the assay and thrombin generation was measured for 60 minutes at 37° C. with a Fluoroskan Ascent fluorometer (ThermoLabsystem, Helsinki, Finland) according to the manufacturer's instructions. The amount of thrombin generated was quantified by comparison to an assay with thrombin calibrator reagent (Diagnostica Stago) that has a known activity toward the fluorogenic substrate. The lag time, peak amount of thrombin generated, and endogenous thrombin potential (ETP) were automatically calculated by the Thrombinoscope software (Thrombinoscope BV, the Netherlands).
Thrombin is the final protease formed in the coagulation cascade, and the rate of thrombin generation and the total amount of thrombin generated is associated with blood clot formation and stability (Wolberg, Blood Rev 21:131-42 (2007)). To gain more information about the impact of aptamer anticoagulation on the kinetics of thrombin generation, the individual aptamers were analyzed with calibrated automated thrombography (CAT). The CAT assay measures real-time thrombin generation in plasma by monitoring cleavage of a thrombin-specific fluorogenic substrate in response to TF stimulation (Heruker et al, Pathophysiol Haemost Thromb 33: 4-15 (2003)). The parameters of thrombin generation analyzed include: the lag time (time until thrombin generation begins), the peak (the maximal amount of thrombin generated at a given time) and the endogenous thrombin potential (ETP, the total amount of thrombin generated). Similar to the aPTT and PT clotting assays, all of the individual aptamers dose-dependently impacted the various parameters of thrombin generation (FIG. 21 and Table 1). […] 9.3T minorly impacted all parameters of thrombin generation with the high TF reagent; however, because high concentrations of TF may bypass FIX activity by directly generating FXa, the manufacturer recommends low concentrations of TF for analyzing FIX deficient (i.e, Hemophilia B) plasma in the CAT.

[2] = system: clot formation in whole blood; assay: Thromboelastography (TEG), whole blood stimulated with tissue factor; type: cell-based, human
Method: (§1) Blood was drawn from healthy, consented volunteers under a Duke University Institutional Review Board approved protocol and anticoagulated with 3.2% sodium citrate. Whole blood (320 μL) was mixed with anticoagulant (heparin or aptamers) (10 μL) and kaolin (Haemonetics, Niles, Ill.) (10 μL) or CAT PRP reagent (Diagnostica Stago, 0.33 ρM TF final) (10 μL) was added to stimulate clotting. CaCl2 (20 μL) was immediately added to overcome the citrate, the mixture was added to a plain disposable plastic TEG cup (Haemonetics), and the assay was run according to the manufacturer's instructions. Clot formation at 37° C. was measured with a Thromboelastograph Analyzer (Haemonetics, Niles, Ill.) until a stable clot was formed (i.e., a maximum amplitude was reached) or for three hours with the aptamer combinations. The time lag time, α-angle, and maximum amplitude were automatically calculated by the TEG® Analytical Software version 4.2.3 (Haemonetics).
Because kaolin stimulates blood via the intrinsic pathway, it is unlikely that 7S-1 (FVIIa aptamer) would impair clot formation with this type of stimulation; thus, this aptamer was tested in a modified TEG with TF stimulation. CAT platelet rich plasma (PRP) reagent (TF) was diluted to a final concentration of 0.33 ρM TF to stimulate clotting.

[3] = system: clot formation in whole blood; assay: Thromboelastography (TEG), whole blood stimulated with kaolin; type: cell-based, human
Method: as §1
Although the aPTT, PT, and CAT assays provide basic information about dose-dependent anticoagulation, these assays are performed in an environment that lacks platelets. Platelets play a crucial role in clot formation by providing a membrane surface upon which the clotting factors assemble, by aggregating and becoming physically incorporated into the blood clot, and by releasing internal stores of agonists that amplify coagulation (Monroe et al, Arterioscler Thromb Vasc Biol 22:138 1-9 (2002)). Therefore, a study was made of aptamer anticoagulation with thromboelastography (TEG), which provides real-time information about the kinetics of clot formation in whole blood (Reikvam et al, Transfus Apher Sci; 40:119-23 (2009). The TEG assay uses mechanical motion to quantify the physical properties of clot formation, including the lag time (the time until clot formation), the α-angle (the rate of clot formation), and the maximum amplitude (the mechanical strength of the clot formed).

[4] = system: clot formation in normal human platelet poor plasma; assay: Activated partial thromboplastin time (aPTT) plasma clotting assay; type: biochemical; settings: aPTT
Method: The activated partial thromboplastin time (aPTT) and prothrombin time (PT) assays were performed on a model ST4 mechanical coagulometer (Diagnostica Stago, Parsippany, N.J.) as previously described (Bompiani et al, J Thromb Haemost 10:870-80 (2012)). For the aPTT, 50 μL of normal human platelet poor plasma (PPP) was incubated with 50 μL TriniClot aPTT S (Trinity BioTech, Bray, Co Wicklow, Ireland) at 37° C. for 5 min. Aptamer(s) (5 μL) was added, and the mixture was incubated at 37° C. for another 5 min, and CaCl2 (50 μL) was added to initiate the assay. For the PT, 50 μL of normal human PPP was incubated with 5 μL of aptamer(s) at 37° C. for 5 min. TriniClot PT Excel reagent (Trinity BioTech, Bray, Co Wicklow, Ireland) (100 μL) was added to initiate the reaction. Assays with a combination of two aptamers contain an equimolar concentration of each individual aptamer, and the data shown are the total RNA concentration.
To compare the anticoagulant effect of these four aptamers, dose-response titrations were performed in several clinical plasma-based clotting assays. The activated partial thromboplastin time (aPTT) and prothrombin time (PT) are plasma clotting assays that are clinically used to probe for abnormalities in the intrinsic and extrinsic coagulation pathways, respectively (Van Cott et al, editors. Jacobs & DeMott laboratory test handbook. 5th ed. Hudson Ohio: Lexi-Comp. p. 327-58 (2001)). These relatively simple assays measure the time until clot formation in platelet poor plasma (PPP) in response to either robust tissue factor (TF), or contact stimulation via negatively charged surfaces (i.e., silica, kaolin, celite). […] At high concentrations, the prothrombin aptamer (R9D-14T) was the most robust anticoagulant and inhibited greater than 96% of prothrombin activity in the aPTT and PT. At 4 μM, R9D-14T increased the aPTT clotting time approximately 18-fold and the PT clotting time greater than 80-fold (exceeded the assay limit of 999 sec). […] At the same dose, the FIXa aptamer (9.3T) inhibited greater than 99% of FIX activity and increased the aPTT clotting time approximately 5.5-fold, while the FVIIa aptamer (7S-1) increased the PT clotting time 3-fold and inhibited greater than 99% of FVII activity (FIGS. 20A and 20B).

Work on “9.3Tmut: 9.3T mutant control, SEQ ID NO: 4 (AUGGGGACUGUGCCGCGUAAUGCUGCCUCCCCAU; 2'-fluoro at CU, RNA at AG, backbone not given here) [Aptamer 9.3Tmut, reference compound]” yielded an ETP ([1]; RNA 120 nM, TF 1 ρM) of 1446.83 ± 59.97 nM·min, a Lag-time ([1]; RNA 120 nM, TF 1 ρM) of 3.11 ± 0.20 min and a Peak ([1]; RNA 120 nM, TF 1 ρM) of 219.57 ± 33.93 nM. It also gave a TTP ([1]; RNA 120 nM, TF 1 ρM) of 7.17 ± 0.59 min, an ETP ([1]; RNA 120 nM, TF 5 ρM) of 1820.83 ± 80.77 nM·min and a Lag-time ([1]; RNA 120 nM, TF 5 ρM) of 1.89 ± 0.06 min. It also gave a Peak ([1]; RNA 120 nM, TF 5 ρM) of 355.41 ± 17.21 nM, a TTP ([1]; RNA 120 nM, TF 5 ρM) of 4.34 ± 0.10 min and an Angle ([2]; RNA 1.00 μM) of 69.0 ± 4.8 deg. The Lag-time ([2]; RNA 1.00 μM) was 2.7 ± 0.4 min, the “Max. Amplitude” value ([2]; RNA 1.00 μM) was 67.2 ± 1.6 mm and the Angle ([3]; RNA 2.0 μM) was 58.6 ± 7.8 deg. For the same molecule, the Lag-time ([3]; RNA 2.0 μM) was 7.3 ± 2.1 min and the “Max. Amplitude” value ([3]; RNA 2.0 μM) was 60.1 ± 5.8 mm.

“11F7Tmut: 11F7T mutant control, SEQ ID NO: 6 (rGrArGrArGfCfCfCfCrArGfCrGrArGrAfUrArAfUrAfCfUfUrGfUrAfCfCfCrGfCfUfCfUfU) [Aptamer 11F7Tmut, reference compound]” showed an ETP ([1]; RNA 1,000 nM, TF 5 ρM) of 1902.67 ± 87.44 nM·min, a Lag-time ([1]; RNA 1,000 nM, TF 5 ρM) of 1.39 ± 0.06 min and a Peak ([1]; RNA 1,000 nM, TF 5 ρM) of 391.12 ± 13.27 nM. It also gave a TTP ([1]; RNA 1,000 nM, TF 5 ρM) of 3.73 ± 0.06 min, an Angle ([2]; RNA 2.00 μM) of 68.5 ± 0.5 deg and a Lag-time ([2]; RNA 2.00 μM) of 3.9 ± 0.2 min. The “Max. Amplitude” value ([2]; RNA 2.00 μM) was 67.9 ± 0.7 mm, the Angle ([3]; RNA 2.0 μM) was 69.7 ± 1.2 deg and the Lag-time ([3]; RNA 2.0 μM) was 5.1 ± 0.6 min. The “Max. Amplitude” value ([3]; RNA 2.0 μM) was 65.8 ± 0.8 mm.

In the case of “R9D-14Tmut: R9D-14T mutant control, SEQ ID NO: 7 (GGCGGTCGATCACACAGTTCAAACGTAATAAGCCGGCGTACGAGGCAGACGACTCGCC; 2'-fluoro at CT, RNA at AG, all phosphodiester, T or U not given here) [Aptamer R9D-14Tmut, reference compound]”, the ETP ([1]; RNA 5,000 nM, TF 5 ρM) is reported as 1564.33 ± 121.22 nM·min, the Lag-time ([1]; RNA 5,000 nM, TF 5 ρM) is reported as 1.44 ± 0.06 min and the Peak ([1]; RNA 5,000 nM, TF 5 ρM) is reported as 312.12 ± 8.89 nM. For the same molecule, the TTP ([1]; RNA 5,000 nM, TF 5 ρM) was 3.66 ± 0.17 min, the Angle ([2]; RNA 5.00 μM) was 72.3 ± 0.7 deg and the Lag-time ([2]; RNA 5.00 μM) was 2.7 ± 0.2 min. For the same molecule, the “Max. Amplitude” value ([2]; RNA 5.00 μM) was 66.1 ± 1.4 mm, the Angle ([3]; RNA 5.0 μM) was 56.0 ± 4.8 deg and the Lag-time ([3]; RNA 5.0 μM) was 6.5 ± 0.4 min. For the same molecule, the “Max. Amplitude” value ([3]; RNA 5.0 μM) was 61.9 ± 4.0 mm.

B1: FIX/FX dogbone 2: bifunctional FIX/FX dogbone aptamer, SEQ ID NO: 16 (nucleic acid)
chain: GGAUGGGGACUAUACCGCGUAAUGCUGCCUCCCCAUCCAAAACGUAGAGAGCCCCAGCGAGAUAAUACUUGGCCCCGCUCUUUACGU
modifications: listed as RNA, chemistry not given here
With B1 the “anti-coagulation of dogbones compared to the free combination of aptamers (in words)” value [4] was “equal anti-coagulation compared to the free combination”.

B2: 7S-1mut: 7S-1 mutant control, SEQ ID NO: 8 (nucleic acid)
chain: rGrGrGrArGrGrAfCrGrAfUrGfCrGrGrAfCfUfCfCfUfCfCrArArGfCrGrAfCfCrArAfCrAfUfCrGrGfUfCfUfUrAfUfUfUfCrArGrAfUfCrArAfCrArGrAfCrGrAfCfUfCrGfCfUrGrArGrGrAfUfCfCrGrArGrA
In the case of B2, the ETP ([1]; RNA 30 nM, TF 5 ρM) is reported as 1890.67 ± 23.55 nM·min, the Lag-time ([1]; RNA 30 nM, TF 5 ρM) is reported as 1.73 ± 0.06 min and the Peak ([1]; RNA 30 nM, TF 5 ρM) is reported as 357.63 ± 7.76 nM. It also gave a TTP ([1]; RNA 30 nM, TF 5 ρM) of 4.45 ± 0.06 min, an Angle ([2]; RNA 0.50 μM) of 67.8 ± 3.8 deg and a Lag-time ([2]; RNA 0.50 μM) of 3.1 ± 0.1 min. The “Max. Amplitude” value ([2]; RNA 0.50 μM) was 67.2 ± 0.7 mm.

B3: FX/FII dogbone 3: bifunctional FX/FII dogbone aptamer, SEQ ID NO: 21 (nucleic acid)
chain: GGGUCGAUCACACAGUUCAAACGUAAUAAGCCAAUGUACGAGGCAGACGACUCCAAAAGCCCCAGCGAGAUAAUACUUGGCCCCGCU
modifications: listed as RNA, chemistry not given here
For B3, the “anti-coagulation of dogbones compared to the free combination of aptamers (in words)” value [4] was “better anti-coagulation when compared to the free aptamers”.

B4: FIX/FX dogbone 1: bifunctional FIX/FX dogbone aptamer, SEQ ID NO: 15 (nucleic acid)
chain: GGUGGAUGGGGACUAUACCGCGUAAUGCUGCCUCCCCAUCCACCAAAUAGCACGUAGAGAGCCCCAGCGAGAUAAUACUUGGCCCCGCUCUUUACGUGCUA
modifications: listed as RNA, chemistry not given here
B4 was tested, and the “anti-coagulation of dogbones compared to the free combination of aptamers (in words)” value [4] was “equal anti-coagulation compared to the free combination”.

B5: FX/FII dogbone 1: bifunctional FX/FII dogbone aptamer, SEQ ID NO: 19 (nucleic acid)
chain: GGGGCGGUCGAUCACACAGUUCAAACGUAAUAAGCCAAUGUACGAGGCAGACGACUCGCCCCAAAACGUAGAGAGCCCCAGCGAGAUAAUACUUGGCCCCGCUCUUUACGU
modifications: listed as RNA, chemistry not given here
With B5 the “anti-coagulation of dogbones compared to the free combination of aptamers (in words)” value [4] was “better anti-coagulation when compared to the free aptamers”.

B6: 3G dogbone 4: truncate of FX/FII dogbone 4, SEQ ID NO: 23 (nucleic acid)
chain: GGGUCGAUCACACAGUUCAAACGUAAUAAGCCAAUGUACGAGGCAGACGACCCAAAGCCCCAGCGAGAUAAUACUUGGCCCCGCU
modifications: listed as RNA, chemistry not given here
In the case of B6, the “anti-coagulation activity of dogbone 4 truncates (in words)” value [4] is reported as “best anti-coagulation activity of the truncates”.

B7: 4G dogbone 4: truncate of FX/FII dogbone 4, SEQ ID NO: 24 (nucleic acid)
chain: GGGGAUCACACAGUUCAAACGUAAUAAGCCAAUGUACGAGGCAGACCCCAAAGCCCCAGCGAGAUAAUACUUGGCCCCGCU
modifications: listed as RNA, chemistry not given here
For B7, the “anti-coagulation activity of dogbone 4 truncates (in words)” value [4] was “best anti-coagulation activity of the truncates”.
